US6057324A, “Substituted amidinobenzene derivatives and medicinal compositions thereof” (Yamanouchi Pharmaceutical Co., Ltd, priority 1996, dated 2000)

Key:
platelets = experiment: Ex vivo platelet aggregation-inhibiting activity in cynomolgus monkeys; settings: 1 mg/kg via stomach tube, triggers 20 μM ADP and 10 μg/ml collagen
Procedure: Cynomolgus monkeys that had been lightly anesthetized by intramuscular administration of ketamine hydrochloride were fixed on a work-bench, and a sample compound of the present invention dissolved or suspended in a methylcellulose solution was administered into the stomach via a stomach tube at a dose of 1 mg/kg. Before the administration and after the administration at a predetermined period of time, 3 ml (containing 1/10 times by volume of sodium citrate) of the blood was collected from the animal through the femoral vein. From the blood, platelet-rich-plasma (PRP) was obtained according to the method of De Marco et al's (see J. clin. Invest., 77, 1272-1277, 1986). The PRP was adjusted at 3×10^8 /ml with an automatic blood cell counter (MEK-5158 Model, produced by Nihon Koden Co.) before use. Then, 20 μM of ADP and 10 μg/ml of bovine tendon-derived collagen (produced by Niko Bioscience Co.) as triggers to cause the aggregation of the platelets. The degree of the aggregation of the platelets was measured with a platelet aggregation meter (NBS Hematracer 801, produced by Niko Bioscience Co.). The platelet aggregation-inhibiting activity of the tested compound was represented by the inhibition percentage (%) relative to the maximum aggregation percentage of each animal before the addition of the test compound.
The test results are shown in Table 2 together with the results of the Compound A which is the active body of the compounds of the present invention.

[1] = Metabolic test of an active body (Compound A) in plasma after oral administration to beagle dogs; type: in vivo; settings: 10 mg/kg
Procedure: Compound of Example 2 of the present invention was administered to three beagle dogs orally at a dose of 10 mg/kg as an aqueous solution and then blood was withdrawn over 48 hours after administration. After centrifugation, plasma was separated and then stored at -20° C. until analysis. Compound A (compound name: 4-[4-(4-amidinophenyl)-3-oxo-1-piperazinyl]-1-piperidineacetic acid, an unexamined published Japanese patent application No. 8-333342), which is an active body produced as a metabolite of Compound of Example 2, was determined by the high performance liquid chromatography method to obtain the pharmacokinetic parameters. Compound A was also administered to the same beagle dogs at a dose of 10 mg/kg, and then plasma Compound A concentration was measured. Pharmacokinetic parameters of Compound A after the administration of Compound of Example 2 and Compound A were compared-with each other. In Table 1 it is shown the pharmacokinetic parameters of plasma Compound A after oral administration, and in FIG. 1 it is shown the plasma concentration-time profile of Compound A after oral administration.
Table 1 represents Pharmacokinetic parameters of plasma Compound A after oral administration of Compound of Example 2 and Compound A to beagle dogs at a dose of 10 mg/kg (mean of three animals±standard deviation) and FIG. 1 represents plasma concentration-time profile of Compound A.

bioavailability of Compound A when administered as prodrug (in words) [1]	plasma residence time of Compound A when administered as prodrug (in words) [1]	t1/2 of Compound A compared with administration of Compound A (in words) [1]	AUC(0-t) at 48 h ([1]; dog, plasma, mean of three animals ± standard deviation, analyte Compound A, read-out: AUC0-48 (area under the time-concentration curve in plasma over 48 hours) of Compound A) [ng·h/mL]	Cmax ([1]; dog, plasma, mean of three animals ± standard deviation, analyte Compound A, read-out: Cmax (maximum plasma concentration) of plasma Compound A) [ng/mL]	Tmax ([1]; dog, plasma, mean of three animals ± standard deviation, analyte Compound A, read-out: Tmax (time to reach Cmax) of plasma Compound A) [h]	half-life ([1]; dog, plasma, mean of three animals ± standard deviation, analyte Compound A, read-out: t1/2 (elimination half life) of plasma Compound A (converted)) [min]	Structure (SMILES)	Platelet aggregation-inhibiting ratio after 3 hours (platelets) [%]	Platelet aggregation-inhibiting ratio after 6 hours (platelets) [%]	Platelet aggregation-inhibiting ratio after 9 hours (platelets) [%]	Platelet aggregation-inhibiting ratio after 12 hours (platelets) [%]	Platelet aggregation-inhibiting ratio after 24 hours (platelets) [%]
increase	increase	greatly prolonged	–	–	–	–	CCOC(=O)CN1CCC(N2CCN(c3ccc(C(=N)NO)cc3)C(=O)C2)CC1 [Example 2, ethyl 4-[4-(4-hydroxyamidinophenyl)-3-oxo-1-piperazinyl]-1-piperidineacetate]	24.7 ± 23.7	66.3 ± 15.4	88.0 ± 11.0	89.0	54.0 ± 9.0
–	–	–	–	–	–	–	CCOC(=O)CN1CCC(N2CCN(c3ccc(C(=N)NC(=O)OC)cc3)C(=O)C2)CC1 [Example 7, Ethyl 4-[4-(4-methoxycarbonylamidinophenyl)-3-oxo-1-piperazinyl]-1-piperidineacetate]	9.0 ± 5.7	42.0 ± 14.7	60.0 ± 15.6	64.3	26.0 ± 2.9
–	–	–	3550 ± 838	748 ± 175	1.7 ± 0.6	126	N=C(N)c1ccc(N2CCN(C3CCN(CC(=O)O)CC3)CC2=O)cc1 [Compound A, 4-[4-(4-amidinophenyl)-3-oxo-1-piperazinyl]-1-piperidineacetic acid]	19.7 ± 9.4	16.3 ± 7.5	14.2 ± 5.9	–	–
